Data published in patent US20250019398A1, “NONAMERIC PEPTIDE HAVING EXCELLENT ANTIBACTERIAL ACTIVITY AGAINST GRAM-NEGATIVE BACTERIA AND ENANTIOMER THEREOF” (priority 2021, published 2025).
In brackets after ≈: the same amount, converted by molar mass. Like-named read-outs stand apart in the source and are kept apart here.

What was measured:
[1] = test system: Escherichia coli KCTC 1682; experiment: MIC, broth dilution; type: cell-based; conditions: standard Gram-negative bacteria, 16 hours, read-out: Minimal inhibitory concentration (MIC), E. coli
From the text: (§1) In addition, carbapenem-resistant E. coli NCCP16044 and carbapenem-resistant Klebsiella pneumonia NCCP 15782 were obtained from the NCCP, and three types of carbapenem-resistant A. baumanii CCARM 12004-6 were obtained from the Culture Collection of Antimicrobial Resistance Microbes (CCARM) (Cheongju City, Korea). The E. coli K1 (ATCC700973) strain used in the animal experiments was obtained from the American Type Culture Collection (ATCC) ([…]).
(§2) The antimicrobial activities of the peptides were measured by a minimal inhibitory concentration (MIC) analysis. The MIC was determined using a broth dilution method. All bacterial strains were grown overnight at 37° C. in a Muller-Hinton (MH) medium.

[2] = test system: CRAB 12006; experiment: Crystal violet biofilm inhibition; type: cell-based, A. baumannii; conditions: 0-32 μM, 16 h
Experimental: A crystal-violet-based assay was used to investigate the biofilm inhibition ability of R-Pro9-3D against A. baumannii standard bacteria and a CRAB 12006 line. […] Thereafter, bacterial cells were fixed with methanol (100%, 15 minutes) and then stained with crystal violet (0.1% (w/v) in 0.25% (v/v) acetic acid for 1 hour). The plate was washed with distilled H2O, dried and dissolved in ethanol (100% v/v). Color development, which indicates the extent of biofilm, was measured at 595 nm and expressed as biofilm formation percentage.

[3] = test system: carbapenem-resistant E. coli NCCP16044 (CREC 16044); experiment: microbe, parasite or virus in culture; type: cell-based; conditions: 16 hours, read-out: Minimal inhibitory concentration (MIC), CREC 16044
From the text: as §1, with “Among the bacterial strains used in the experiment, Escherichia coli KCTC 1682 was obtained from the Korean Collection for Type Cultures (KCTC) (Jeongeup, Korea), Acinetobacter baumannii KCCM 40203 and Pseudomonas aeruginosa KCCM 11328 were obtained from the Korean Culture Center of Microorganisms (KCCM) (Seoul, Korea), and Klebsiella pneumonia NCCP 16054 was obtained from the National Culture Collection for Pathogens (NCCP) (Osong, Korea). In” for “In”
as §2

[4] = test system: Pseudomonas aeruginosa KCCM 11328; experiment: MIC, broth dilution; type: cell-based; conditions: standard Gram-negative bacteria, 16 hours
From the text: as §1, with “Among the bacterial strains used in the experiment, Escherichia coli KCTC 1682 was obtained from the Korean Collection for Type Cultures (KCTC) (Jeongeup, Korea), Acinetobacter baumannii KCCM 40203 and Pseudomonas aeruginosa KCCM 11328 were obtained from the Korean Culture Center of Microorganisms (KCCM) (Seoul, Korea), and Klebsiella pneumonia NCCP 16054 was obtained from the National Culture Collection for Pathogens (NCCP) (Osong, Korea). In” for “In”
as §2

[5] = test system: Klebsiella pneumonia NCCP 16054; experiment: MIC, broth dilution; type: cell-based; conditions: standard Gram-negative bacteria, 16 hours
From the text: as §1, with “Among the bacterial strains used in the experiment, Escherichia coli KCTC 1682 was obtained from the Korean Collection for Type Cultures (KCTC) (Jeongeup, Korea), Acinetobacter baumannii KCCM 40203 and Pseudomonas aeruginosa KCCM 11328 were obtained from the Korean Culture Center of Microorganisms (KCCM) (Seoul, Korea), and Klebsiella pneumonia NCCP 16054 was obtained from the National Culture Collection for Pathogens (NCCP) (Osong, Korea). In” for “In”
as §2

[6] = test system: Acinetobacter baumannii KCCM 40203; experiment: MIC, broth dilution; type: cell-based; conditions: standard Gram-negative bacteria, 16 hours
From the text: as §1, with “Among the bacterial strains used in the experiment, Escherichia coli KCTC 1682 was obtained from the Korean Collection for Type Cultures (KCTC) (Jeongeup, Korea), Acinetobacter baumannii KCCM 40203 and Pseudomonas aeruginosa KCCM 11328 were obtained from the Korean Culture Center of Microorganisms (KCCM) (Seoul, Korea), and Klebsiella pneumonia NCCP 16054 was obtained from the National Culture Collection for Pathogens (NCCP) (Osong, Korea). In” for “In”
as §2

[7] = test system: carbapenem-resistant Klebsiella pneumonia NCCP 15782 (CRKP 15782); experiment: MIC, broth dilution; type: cell-based; conditions: 16 hours
From the text: as §1, with “Among the bacterial strains used in the experiment, Escherichia coli KCTC 1682 was obtained from the Korean Collection for Type Cultures (KCTC) (Jeongeup, Korea), Acinetobacter baumannii KCCM 40203 and Pseudomonas aeruginosa KCCM 11328 were obtained from the Korean Culture Center of Microorganisms (KCCM) (Seoul, Korea), and Klebsiella pneumonia NCCP 16054 was obtained from the National Culture Collection for Pathogens (NCCP) (Osong, Korea). In” for “In”
as §2

[8] = test system: intact CRAB bacteria; experiment: diSC3-5 membrane depolarization; type: cell-based, A. baumannii; conditions: 4 μM
Experimental: Depolarization ability by peptides was measured using a membrane potential-sensitive dye 3,3′-dipropylthiadicarbocyanine iodide (diSC3-5) using intact CRAB bacteria. CRAB cells were washed using a wash buffer (5 mM HEPES, 20 mM glucose, pH 7.4). The cells were resuspended in a dilution buffer (5 mM HEPES, 20 mM glucose, 0.1 M KCl, pH 7.4) and then cultured with a diSC3-5 dye (1 hour). Finally, the fluorescence changes of cells treated with various concentrations of peptides, a negative control (cells with dye) and a positive control (1% Triton X-100) were recorded using a fluorescence spectrophotometer, and the results are expressed as percent depolarization.

[9] = test system: CRAB 12005 (carbapenem-resistant A. baumanii CCARM); experiment: MIC, broth dilution; type: cell-based, A. baumannii; conditions: 16 hours, read-out: Minimal inhibitory concentration (MIC), CRAB 12005
From the text: as §1, with “Among the bacterial strains used in the experiment, Escherichia coli KCTC 1682 was obtained from the Korean Collection for Type Cultures (KCTC) (Jeongeup, Korea), Acinetobacter baumannii KCCM 40203 and Pseudomonas aeruginosa KCCM 11328 were obtained from the Korean Culture Center of Microorganisms (KCCM) (Seoul, Korea), and Klebsiella pneumonia NCCP 16054 was obtained from the National Culture Collection for Pathogens (NCCP) (Osong, Korea). In” for “In”
as §2

[10] = test system: CRAB 12004 (carbapenem-resistant A. baumanii CCARM); experiment: MIC, broth dilution; type: cell-based, A. baumannii; conditions: 16 hours, read-out: Minimal inhibitory concentration (MIC), CRAB 12004
From the text: as §1, with “Among the bacterial strains used in the experiment, Escherichia coli KCTC 1682 was obtained from the Korean Collection for Type Cultures (KCTC) (Jeongeup, Korea), Acinetobacter baumannii KCCM 40203 and Pseudomonas aeruginosa KCCM 11328 were obtained from the Korean Culture Center of Microorganisms (KCCM) (Seoul, Korea), and Klebsiella pneumonia NCCP 16054 was obtained from the National Culture Collection for Pathogens (NCCP) (Osong, Korea). In” for “In”
as §2

[11] = test system: CRAB 12006 (carbapenem-resistant A. baumanii CCARM); experiment: MIC, broth dilution; type: cell-based, A. baumannii; conditions: 16 hours, read-out: Minimal inhibitory concentration (MIC), CRAB 12006
From the text: as §1, with “Among the bacterial strains used in the experiment, Escherichia coli KCTC 1682 was obtained from the Korean Collection for Type Cultures (KCTC) (Jeongeup, Korea), Acinetobacter baumannii KCCM 40203 and Pseudomonas aeruginosa KCCM 11328 were obtained from the Korean Culture Center of Microorganisms (KCCM) (Seoul, Korea), and Klebsiella pneumonia NCCP 16054 was obtained from the National Culture Collection for Pathogens (NCCP) (Osong, Korea). In” for “In”
as §2

Row | MIC ([1]; Escherichia coli, KCTC1682) [µM] | MIC ([3]; Escherichia coli) [µM] | SMILES | Biofilm formation inhibition, CRAB 12006 [2] | MIC [1] [µM] | Minimal inhibitory concentration (MIC), P. aeruginosa [4] [µM] | Minimal inhibitory concentration (MIC), K. pneumonia [5] [µM] | Minimal inhibitory concentration (MIC), A. baumannii [6] [µM] | Minimal inhibitory concentration (MIC), CRKP 15782 [7] [µM] | Depolarization [8] [%] | MIC [3] [µM] | MIC [9] [µM] | MIC [10] [µM] | MIC [11] [µM]
1 | 0.25 (≈ 0.0959 µg/mL) | 8 (≈ 3.07 µg/mL) | C[C@@H](O)[C@H]1C(=O)N2C(C(=O)O)=C(S[C@@H]3CN[C@H](C(=O)N(C)C)C3)[C@H](C)[C@H]12 [Meropenem] | remarkably lower | – | – | – | – | – | – | – | – | – | –
2 | – | – | CC[C@H](C)[C@H](NC(=O)CN)C(=O)NCC(=O)N[C@@H](C)C(=O)N[C@H](C(=O)N[C@@H](CC(C)C)C(=O)N[C@@H](CCCCN)C(=O)N[C@H](C(=O)N[C@@H](CC(C)C)C(=O)N[C@H](C(=O)N[C@H](C(=O)NCC(=O)N[C@@H](CC(C)C)C(=O)N1CCC[C@H]1C(=O)N[C@@H](C)C(=O)N[C@@H](CC(C)C)C(=O)N[C@H](C(=O)N[C@@H](CO)C(=O)N[C@@H](Cc1c[nH]c2ccccc12)C(=O)N[C@H](C(=O)N[C@@H](CCCCN)C(=O)N[C@@H](CCCNC(=N)N)C(=O)N[C@@H](CCCCN)C(=O)N[C@@H](CCCNC(=N)N)C(=O)N[C@@H](CCC(N)=O)C(=O)N[C@@H](CCC(N)=O)C(N)=O)[C@@H](C)CC)[C@@H](C)CC)[C@@H](C)O)[C@@H](C)O)C(C)C)C(C)C [Melittin] | – | 8 (≈ 22.8 µg/mL) | 16 (≈ 45.5 µg/mL) | 32 (≈ 91.1 µg/mL) | 4 (≈ 11.4 µg/mL) | 32 (≈ 91.1 µg/mL) | 75.6 | 8 (≈ 22.8 µg/mL) | 4 (≈ 11.4 µg/mL) | 4 (≈ 11.4 µg/mL) | 4 (≈ 11.4 µg/mL)
